Assay results: patent US20230390315A1, “COMPOSITIONS AND METHODS FOR TREATING ISCHEMIC CONDITIONS” (The Regents of the University of California, priority 2020, published 2023)

How the values were obtained:
[1] = test system: bovine choroidal microvascular endothelial cells (BCEC); experiment: BCEC proliferation assay; assay type: cell-based
Method: Proliferation assays with BCECs and BRECs were performed. Log-phase growing BCECs or BRECs (passage <10) were trypsinized, re-suspended and seeded in 96-well plates (no coating) in low-glucose DMEM supplemented with 10% bovine calf serum, 2 mM glutamine, and antibiotics (growth medium), at a density of 1200-1500 cells per well in 200 μl volume. All reagents were added at the indicated final concentrations. […] Fluorescence was measured at 530 nm excitation wavelength and 590 nm emission wavelength. The experiments were repeated at least three times. […] On each 96-well plate, untreated and VEGF-treated (10/ng/ml) wells were included to monitor plate-to-plate variations. 20% methanol or 0.05% DMSO served as negative controls. 0.05% DMSO served as negative controls when Cas was tested in these cells. Human […] and human adult […] were split into Gelatin-coated 96 wells (2000 cells per well) in low glucose DMEM containing 10% FBS. 1200 cells/well was set up for proliferation assay in low glucose media containing FBS. […] HUVEC (p7-10) were grown on gelatin-coated plate until it reached 70-80% confluency. On the day of the assay, cells were dissociated with 0.05% trypsin, which was neutralized with 0.5% FBS-containing EBM. Cells were briefly spun and then re-suspended in 0.5% FBS-media. Cells were counted and plated in 96-well, 1000 cells/well. Triplicate wells were used for each treatment. Data were collected at day 3, and then cells were fixed in 4% paraformaldehyde for 15 min before adding crystal violet. Cell-covered areas were quantified after taking pictures by Image J software.

[2] = test system: VEGFR2; experiment: Western blot of VEGFR2 molecular mass in BCECs and BRECs; assay type: cell-based, bovine; details: BCECs and BRECs
Method: Glycerol-free PNGase F was obtained from New England Biolabs (Ipswich, MA). Briefly, BCECs were lysed with NP-40 containing proteinase inhibitors (Thermo Scientific, Waltham, MA). Lysates were cleared at 4° C. at 5000 g for 25 mins. Total protein content was measured using Pierce BCA protein assay kit (ThermoScientific). […] of protein was mixed with 10× denaturing buffer and H2O to a total volume of […]. Glycoproteins were denatured at 100° C. for 10 mins, followed by adding Glycobuffer and PNGase F. The reaction was carried out at 37° C. for 2 hr.
(§1) Cells were allowed to reach ˜80% confluency in 12-well plates. […] At various time points, plates were taken out of the incubator and kept on ice. Cell monolayers were first washed once with ice-cold PBS before lysis with 250 μl of Pierce RIPA buffer (ThermoFisher Scientific, Rockford, IL) or use 50 mM Tris-HCl (pH 7.6), 150 mM NaCl, 10% Glycerol, 1% NP-40 containing protease/Phosphatase inhibitor cocktail (100×) (Cell signaling, #5872). Lysates were collected and mixed with 4×Bolt LDS Sample Buffer (Novex, Carlsbad, CA) in the presence of Halt protease inhibitors and phosphatase inhibitor cocktail (ThermoFisher scientific, #NP0007). The samples were subjected to SDS-PAGE (Bolt 4-12% Bis-Tris Plus, Invitrogen) using Bolt MES SDS running buffer or NuPAGE 3-8% Tris-Acetate gel using Tris-Acetate SDS running buffer (Novex). HUVECs (passage 6-8) were plated in EBM-2 basal medium (Lonza) with 0.2% FBS. […] Equal amounts of protein lysates were analyzed by SDS-PAGE and blotted with the indicated antibodies. Proteins were transferred using Tris-Glycine buffer with 20% Methanol (Proteonomics grade) (Apex BioResearch Products). Membranes were first incubated with 5% milk in TBST, pH 7.6 (TEKnova, Hollister, CA), followed by blotting with primary and secondary antibodies. ECL anti-rabbit IgG, horseradish peroxidase linked whole antibody from donkey or sheep anti-mouse were obtained from GE Healthcare (UK limited). SuperSignal West Dura Extended Duration substrate was from ThermoFisher Scientific. In some cases, the same PVDF membranes were stripped by 8-min incubation in the Restore Plus Western Blot Stripping Buffer (ThermoFisher Scientific) to show total specific protein expression, followed by second stripping for β-actin expression.

[3] = test system: BCEC confluent monolayers; experiment: BCEC scratch assay; assay type: cell-based, bovine; details: 40 uM ManN or 50 ng/ml of VEGF; after 48 hours
Method: BCECs (passage 6-10) and HUVEC (passage 6-8) were used in this assay. Cells were grown until about 80% confluency in 6-well plates, washed twice with PBS and then starved in serum-free DMEM (low Glucose, Hyclone) for 5 hrs before making a “scratch” using 1 ml tip. Cell monolayers were briefly washed once with serum-free media, followed by various treatments in media containing 1% FBS. 48 hrs later, the assay was stopped by adding 2 ml 4% paraformaldehyde. 20 min later, fixed cells were stained with 1 ml Crystal Violet (Sigma). Plates were washed gently under the running tap water and air-dried before taking pictures. Images were acquired by ZEISS Discovery […] microscopy equipped with […] camera. Quantification of wound closure was done using AxioVision LE Rel.4.4 software. Six images were taken for each sample and six measurements (in pixel) were made on each image using AxioVision LE Rel.4.4 software.

[4] = test system: skin wound; experiment: Skin wound healing model (splinted wound); assay type: in vivo, mouse; details: day 4; topical 20 μg daily
Source text: The model has been previously described. Briefly, C57BL/6 female mice (8-10 weeks old) were obtained from Jackson labs (Sacramento, CA). A fresh, full-thickness punch wound (4 mm diameter) using a punch (Acu Punch, Acuderm inc. Ft. Lauderdale, FL) splinted with a sterile neoprene ring (6-mm outer diameter and 4-mm inner diameter), fastened with 5-6 sutures (4-0 nylon) under the influence of Isoflurane was created on the back of the animal in a Class II Biological Safety Cabinet. For all surgical procedures, sterile technique was followed. Buprenorphine was given subcutaneously prior to awakening from anesthesia for anticipated pain. Mice were monitored until fully awake and were housed individually to minimize damage/biting/fighting to the surgical site. […] Treatment agents were prepared in PBS, sterile-filtered and 25 μl solution was applied daily directly to a wound bed for the first 4-5 days under the influence of Isoflurane, followed by daily observation. Wound closure was monitored by regular imaging and the wound area was quantified using ImageJ (National Institutes of Health, Bethesda, MD, USA). […] Epithelial gap was measured histomorphometrically using AxioVision LE Rel.4.4 software. […] Small vessels stained positive for CD31 were counted microscopically on 10 fields (20×) taken around the wound.

[5] = test system: Bip, CHOP and ATF-6; experiment: Western blot of UPR responsive proteins in BCECs; assay type: cell-based, bovine; details: growing cells deprived of growth factor supply
Method: as §1

VEGF
fold increase in cell proliferation ([1]; 5 ng/ml VEGF): 4-5 fold
dependence of VEGF activity on glycolysis ([1]; glucose-free media): not dependent on the glycolysis pathway
effect on apparent molecular mass of VEGFR2 [2]: no effect
closure of the scratched area compared to control [3]: significantly accelerated
average closure of the wound [4]: 66.9%
Bip expression [5]: not
